Consider 16 molecules from article PMC12138688, “Identification of Orthosteric GABAB Receptor Ligands by Virtual Screening and In Vitro Validation” (ACS Omega, 2025).

pKi: −log10 of the molar value.

One series deals with GABAB-R.
Test: not given
The settings on record: read-out: Ki value; cited from earlier work.
In general, pKi refers to the Ki on a negative log10 scale, so that one unit is a factor of ten. For CGP54626, the pKi is 8.15.

The next series has as its system human GABAB-R (ChEMBL ID: CHEMBL2111463).
Test: not given
The settings on record: cited from earlier work.
On to `CCOC(OCC)P(=O)(O)CCCN` [CHEMBL40157, NCCCP(=O)(C(OCC)OCC)O], for which the Activity result was “Antagonist”.

As to `NCC(CC(=O)O)c1ccc(Cl)s1` (stereo not shown) [CHEMBL87482, NCC(CC(=O)O)c1ccc(Cl)s1], the Activity entry is “Agonist”.

Regarding `NCC(C[PH](=O)O)c1ccccc1` (stereo not shown) [CHEMBL109752, NCC(C[PH](=O)O)c1ccccc1], the Activity entry is “Agonist”.

`NC(CC[PH](=O)O)c1ccc(Cl)cc1` (stereo not shown) [CHEMBL110306, NC(CC[PH](=O)O)c1ccc(Cl)cc1]: the Activity result is on record as “Agonist”.

Turning to `NCCC(c1ccccc1)[PH](=O)O` (stereo not shown) [CHEMBL111127, NCCC(c1ccccc1)[PH](=O)O], the Activity result is listed as “Agonist”.

On to `NCC(C[PH](=O)O)c1ccc(F)cc1` (stereo not shown) [CHEMBL111378, NCC(C[PH](=O)O)c1ccc(F)cc1], for which the Activity result is given as “Agonist”.

On to `CP(=O)(O)CC(O)CN` (stereo not shown) [CHEMBL113348, CP(=O)(CC(CN)O)O], for which the Activity result is reported as “Agonist”.

`NCC(O)C[PH](=O)O` (stereo not shown) [CHEMBL113453, NCC(O)C[PH](=O)O]: the Activity result is given as “Agonist”.

Consider `NCCC(c1ccc(Cl)cc1)[PH](=O)O` (stereo not shown) [CHEMBL114020, NCCC(c1ccc(Cl)cc1)[PH](=O)O], for which the Activity result was “Agonist”.

Consider `NCC(C[PH](=O)O)c1ccc(Cl)cc1` (stereo not shown) [CHEMBL430501, NCC(C[PH](=O)O)c1ccc(Cl)cc1], for which the Activity result was “Agonist”.

For `CC(NCC(O)CP(=O)(O)Cc1ccccc1)c1ccc(Cl)c(Cl)c1` (stereo not shown) [CHEMBL455185, OC(CP(=O)(Cc1ccccc1)O)CNC(c1ccc(c(c1)Cl)Cl)C], the Activity result is “Antagonist”.

With `NCC(O)(CS(=O)(=O)O)c1ccc(Cl)cc1` (stereo not shown) [CHEMBL1256573, NCC(c1ccc(cc1)Cl)(CS(=O)(=O)O)O], the Activity result is “Antagonist”.

For `CC(C)(CO)Cc1cc(C(C)(C)C)c(O)c(C(C)(C)C)c1` [CHEMBL1256697, CC(C)(CO)Cc1cc(C(C)(C)C)c(O)c(C(C)(C)C)c1], the Activity entry is “PAM”.

Test system in another series: not listed separately
The series can be described thus: Solubility of stock in 100% DMSO. In kind it is physicochemical. The settings on record: stock reduced to 5 mM. As for the experimental part:
The 34 compounds for in vitro testing were purchased from MolPort (https://www.molport.com/). The test compounds were dissolved in 100% DMSO at a stock concentration of 10 mM and stored at −20 °C. […] Stock compounds were subsequently serially diluted in 100% DMSO and finally in a D-glucose solution (20 mM NaOH, 5 mM D-glucose) to obtain final concentrations for testing.
With `CN(Cc1ccc(Cl)c(Cl)c1)Cc1nc2ccsc2c(=O)[nH]1` [Compound 5, CN(Cc1ccc(Cl)c(Cl)c1)Cc1nc2ccsc2c(=O)[nH]1], the “solubility of 10 mM stock” value was “solubility problems”.

In the case of `CSCCC(NC(=O)N1CC(O)=Nc2ccccc21)C(=O)NCc1ccc(Cl)cc1Cl` (stereo not shown) [Compound 25, CSCCC(NC(=O)N1CC(O)=Nc2ccccc12)C(=O)NCc1ccc(Cl)cc1Cl], the “solubility of 10 mM stock” value was “solubility problems”.
